Columns and labels:
[1] = system: HCV replicon I389luc-ubi-neo/NS3-3′/ET in ET (Huh-lucubineo-ET) cells; assay: Replicon assay (Biological Example 2), luciferase readout; format: cell-based; conditions: Hepatitis C virus
Procedure, shortened: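 EC50 values come from Hill fits of % inhibition of replicon-driven firefly luciferase, relative to no-compound wells. Compounds were serially diluted (10 points, 3-fold, 0.1 nM–50 μM final, 0.5% DMSO) onto ET replicon cells and read after 48 h.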

HCV polymerase = target: T1, HCV polymerase (Hepatitis C virus genotype 1b, UniProt Q9WMX2); assay: Polymerase assay of Biological Example 1 (IC50 values of Table 3); format: biochemical; conditions: IC50 values of Table 3, polymerase assay of Biological Example 1; read-out: NS5B-enzyme3
T1 construct: (His)6 (C); made in house; host or cells: XL-1 cells (E. coli, by own knowledge)

[2] = ET cells, luciferase activity 48 hours after compound

Row | Compound | IC50 [1, 2] [nM] | IC50 (HCV polymerase) [nM] | IC50 ([1]; between 100 nM and 5.0 uM) [nM]
1 | O=C(O)c1sc(-c2ccccc2)cc1N1C(=O)CN(Cc2ccc(N3CCCC3)nc2)C[C@H]1C1CCCCC1 [Compound 182, 3-[(R)-2-Cyclohexyl-6-oxo-4-(6-pyrrolidin-1-yl-pyridin-3-ylmethyl)-piperazin-1-yl]-5-phenyl-thiophene-2-carboxylic acid] | ≤ 100 | 2 | –
2 | Cn1cc(-c2ccc(S(=O)(=O)N3CC(=O)N(c4cc(-c5ccccc5)sc4C(=O)O)[C@H](C4CCCCC4)C3)cn2)cn1 [Compound 222, 3-{(R)-2-Cyclohexyl-4-[6-(1-methyl-1H-pyrazol-4-yl)-pyridine-3-sulfonyl]-6-oxo-piperazin-1-yl}-5-phenyl-thiophene-2-carboxylic acid] | ≤ 100 | 2 | –
3 | O=C(O)c1sc(-c2ccccc2)cc1N1C(=O)CN(S(=O)(=O)c2ccc(N3CCCC3)nc2)CC1C1CCCCC1 (stereo not shown) [Compound 76, 3-[2-Cyclohexyl-6-oxo-4-(6-pyrrolidin-1-yl-pyridine-3-sulfonyl)-piperazin-1-yl]-5-phenyl-thiophene-2-carboxylic acid] | ≤ 100 | 4 | –
4 | C[C@@H]1CCCN1c1ccc(S(=O)(=O)N2CC(=O)N(c3cc(-c4ccc(Cl)cc4)sc3C(=O)O)[C@H](C3CCCCC3)C2)cc1 [Compound 234, 5-(4-Chloro-phenyl)-3-{(R)-2-cyclohexyl-4-[4-((R)-2-methyl-pyrrolidin-1-yl)-benzenesulfonyl]-6-oxo-piperazin-1-yl}-thiophene-2-carboxylic acid] | ≤ 100 | 1 | –
5 | Cc1ccc(S(=O)(=O)N2CC(=O)N(c3cc(-c4ccccc4)sc3C(=O)O)[C@H](C3CCCCC3)C2)cc1 [Compound 18, 3-[(R)-2-Cyclohexyl-6-oxo-4-(toluene-4-sulfonyl)-piperazin-1-yl]-5-phenyl-thiophene-2-carboxylic acid] | – | 2 | 100 to 5000
6 | O=C(O)c1sc(-c2ccccc2)cc1N1C(=O)CN(S(=O)(=O)c2ccc(N3CCNCC3)nc2)C[C@@H]1C1CCCCC1 [Compound 132, 3-[(S)-2-Cyclohexyl-6-oxo-4-(6-piperazin-1-yl-pyridine-3-sulfonyl)-piperazin-1-yl]-5-phenyl-thiophene-2-carboxylic acid] | ≥ 5000 | 108 | –
7 | CC(C)(C)C#Cc1cc(N2C(=O)C(CCO)CC[C@H]2C2CCCCC2)c(C(=O)O)s1 (stereo partly drawn) [Compound 342, 3-[(S)-6-Cyclohexyl-3-(2-hydroxy-ethyl)-2-oxo-piperidin-1-yl]-5-(3,3-dimethyl-but-1-ynyl)-thiophene-2-carboxylic acid] | ≤ 100 | 18 | –
8 | CC(C)(C)C#Cc1cc(N2C(=O)CN(S(=O)(=O)c3c[nH]cn3)C[C@H]2C2CCCCC2)c(C(=O)O)s1 [Compound 247, 3-[(R)-2-Cyclohexyl-4-(1H-imidazole-4-sulfonyl)-6-oxo-piperazin-1-yl]-5-(3,3-dimethyl-but-1-ynyl)-thiophene-2-carboxylic acid] | ≤ 100 | 2 | –
9 | Cc1ccc(-c2cc(N3C(=O)CN(S(=O)(=O)c4ccc(C(F)(F)F)nc4)C[C@H]3C3CCCCC3)c(C(=O)O)s2)cc1 [Compound 300, 3-[(R)-2-Cyclohexyl-6-oxo-4-(6-trifluoromethyl-pyridine-3-sulfonyl)-piperazin-1-yl]-5-p-tolyl-thiophene-2-carboxylic acid] | – | 31 | 100 to 5000
10 | Cc1cccc(S(=O)(=O)N2CC(=O)N(c3cc(-c4ccccc4)sc3C(=O)O)C(C3CCCCC3)C2)c1 (stereo not shown) [Compound 49, 3-[2-Cyclohexyl-6-oxo-4-(toluene-3-sulfonyl)-piperazin-1-yl]-5-phenyl-thiophene-2-carboxylic acid] | – | 15 | 100 to 5000
11 | CC(C)(C)C#Cc1cc(N2C(=O)CCC[C@H]2C2CCCCC2)c(C(=O)O)s1 [Compound 35, 3-((S)-2-Cyclohexyl-6-oxo-piperidin-1-yl)-5-(3,3-dimethyl-but-1-ynyl)-thiophene-2-carboxylic acid] | ≤ 100 | 9.5 | –
12 | O=C(O)c1sc(-c2ccccc2)cc1N1C(=O)CN(S(=O)(=O)c2ccc(N3CCC(F)(F)CC3)nc2)CC1C1CCCCC1 (stereo not shown) [Compound 95, 3-[2-Cyclohexyl-4-(4,4-difluoro-3,4,5,6-tetrahydro-2H-[1,2′]bipyridinyl-5′-sulfonyl)-6-oxo-piperazin-1-yl]-5-phenyl-thiophene-2-carboxylic acid] | ≤ 100 | 5 | –
13 | COc1ccncc1-c1ccc(S(=O)(=O)N2CC(=O)N(c3cc(-c4ccccc4)sc3C(=O)O)[C@H](C3CCCCC3)C2)cn1 [Compound 204, 3-[(R)-2-Cyclohexyl-4-(4′-methoxy-[2,3′]bipyridinyl-5-sulfonyl)-6-oxo-piperazin-1-yl]-5-phenyl-thiophene-2-carboxylic acid] | – | 2 | 100 to 5000
14 | CCOc1ccc(-c2cc(N3C(=O)CCCC3C3CCCCC3)c(C(=O)O)s2)cc1 (stereo not shown) [Compound 116, 3-(2-Cyclohexyl-6-oxo-piperidin-1-yl)-5-(4-ethoxy-phenyl)-thiophene-2-carboxylic acid] | – | 64 | 100 to 5000
15 | C[C@@H]1CCCN1c1ncc(S(=O)(=O)N2CC(=O)N(c3cc(-c4ccccc4)sc3C(=O)O)[C@H](C3CCCCC3)C2)cc1Cl [Compound 170, 3-{(R)-4-[5-Chloro-6-((R)-2-methyl-pyrrolidin-1-yl)-pyridine-3-sulfonyl]-2-cyclohexyl-6-oxo-piperazin-1-yl}-5-phenyl-thiophene-2-carboxylic acid] | ≤ 100 | 4 | –
16 | CC(C)(C)C#Cc1cc(N2C(=O)CN(S(=O)(=O)c3ccc(C(F)(F)F)cc3)C[C@H]2C2CCCCC2)c(C(=O)O)s1 [Compound 250, 3-[(R)-2-Cyclohexyl-6-oxo-4-(4-trifluoromethyl-benzenesulfonyl)-piperazin-1-yl]-5-(3,3-dimethyl-but-1-ynyl)-thiophene-2-carboxylic acid] | ≤ 100 | 5.5 | –
17 | CC(C)(C)C#Cc1cc(N2C(=O)C(O)CCC2C2CCCCC2)c(C(=O)O)s1 (stereo not shown) [Compound 313, 3-(6-Cyclohexyl-3-hydroxy-2-oxo-piperidin-1-yl)-5-(3,3-dimethyl-but-1-ynyl)-thiophene-2-carboxylic acid] | ≤ 100 | 31.5 | –
18 | O=C(O)c1sc(-c2ccccc2)cc1N1C(=O)CN(S(=O)(=O)c2cccc(F)c2)CC1C1CCCCC1 (stereo not shown) [Compound 104, 3-[2-Cyclohexyl-4-(3-fluoro-benzenesulfonyl)-6-oxo-piperazin-1-yl]-5-phenyl-thiophene-2-carboxylic acid] | – | 21 | 100 to 5000
19 | O=C(O)c1sc(-c2ccccc2)cc1N1C(=O)CN(S(=O)(=O)c2cccc(-c3ccccc3)c2)CC1C1CCCCC1 (stereo not shown) [Compound 65, 3-[4-(Biphenyl-3-sulfonyl)-2-cyclohexyl-6-oxo-piperazin-1-yl]-5-phenyl-thiophene-2-carboxylic acid] | – | 45 | 100 to 5000
20 | O=C(O)c1sc(-c2ccc(F)cc2)cc1N1C(=O)CN(S(=O)(=O)c2ccc(N3CC[C@H](F)C3)nc2)C[C@H]1C1CCCCC1 [Compound 287, 3-{(R)-2-Cyclohexyl-4-[6-((S)-3-fluoro-pyrrolidin-1-yl)-pyridine-3-sulfonyl]-6-oxo-piperazin-1-yl}-5-(4-fluoro-phenyl)-thiophene-2-carboxylic acid] | ≤ 100 | 1 | –

Source: patent publication US9498483B2, “2,3,5-trisubstituted thiophene compounds and uses thereof” (priority 2010, dated 2016)
